Measured values from patent US20230181536A1, “ANTICANCER COMBINATION THERAPY WITH N-(1-ACRYLOYL-AZETIDIN-3-YL)-2-((1H-INDAZOL-3-YL)AMINO)METHYL)-1H-IMIDAZOLE-5-CARBOXAMIDE INHIBITOR OF KRAS-G12C” (TAIHO PHARMACEUTICAL CO., LTD., priority 2020, published 2023).

Biological target: T1, KRAS G12C (Homo sapiens, UniProt P01116, G12C)
T1 construct: KRAS G12C (amino acid region: 1-169)
Experiment: Inhibitory activity on the KRAS G12C nucleotide (GDP-GTP) exchange reaction
Format: biochemical
Conditions: Bodipy FL GDP-bound KRAS G12C 25 nM; preincubation at 25° C. for 4 hours; SOS1 100 nM, GppNHp 1 μM, reaction for 30 minutes
How it was run: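 Bodipy FL-GDP-loaded KRAS G12C (aa 1-169, 25 nM) preincubated with compound 4 h at 25 °C in pH 7.5 Tris buffer, 5% DMSO; exchange started with SOS1 (aa 564-1049, 100 nM) and 1 μM GppNHp for 30 min. Fluorescence change (ex 485/em 520 nm) normalized to DMSO and no-GppNHp controls; IC50 calculated.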

T1 sequence (P01116 1-169 isoform P01116-2 G12C): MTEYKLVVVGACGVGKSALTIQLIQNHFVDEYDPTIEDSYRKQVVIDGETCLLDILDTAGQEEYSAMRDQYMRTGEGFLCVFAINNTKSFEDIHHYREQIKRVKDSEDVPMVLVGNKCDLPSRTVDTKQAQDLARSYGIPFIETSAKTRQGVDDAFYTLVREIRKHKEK

SMILES | IC50 [nM]
C=CC(=O)N1C[C@H](NC(=O)c2c(C)nc(CNc3n[nH]c4cc(Cl)c(C(C)(C)C)cc34)n2C)[C@@H](C)C1 [Example 60, N-((3R,4S)-1-acryloyl-4-methylpyrrolidin-3-yl)-2-(((5-(tert-butyl)-6-chloro-1H-indazol-3-yl)amino)methyl)-1,4-dimethyl-1H-imidazole-5-carboxamide] | 1500
C=CC(=O)N1C[C@H](NC(=O)c2c(C)nc(CNc3n[nH]c4cc(Cl)c(C(C)(C)C)cc34)n2C)[C@H](OC)C1 [Example 61, N-((3S,4R)-1-acryloyl-4-methoxypyrrolidin-3-yl)-2-(((5-(tert-butyl)-6-chloro-1H-indazol-3-yl)amino)methyl)-1,4-dimethyl-1H-imidazole-5-carboxamide] | 210
C=CC(=O)N1C[C@H](NC(=O)c2c(C)nc(CNc3n[nH]c4cc(Cl)c(C(C)(C)C)cc34)n2C)[C@@H](O)C1 [Example 62, N-((3S,4S)-1-acryloyl-4-hydroxypyrrolidin-3-yl)-2-(((5-(tert-butyl)-6-chloro-1H-indazol-3-yl)amino)methyl)-1,4-dimethyl-1H-imidazole-5-carboxamide] | 96
C=CC(=O)N1C[C@H](NC(=O)c2c(C)nc(CNc3n[nH]c4cc(Cl)c(C(C)(C)C)cc34)n2C)[C@@H](OC)C1 [Example 63, N-((3S,4S)-1-acryloyl-4-methoxypyrrolidin-3-yl)-2-(((5-(tert-butyl)-6-chloro-1H-indazol-3-yl)amino)methyl)-1,4-dimethyl-1H-imidazole-5-carboxamide] | 84
C=CC(=O)N1C[C@H](NC(=O)c2c(C)nc(CNc3n[nH]c4cc(Cl)c(C(C)(C)C)cc34)n2C)[C@@H](F)C1 [Example 64, N-((3S,4S)-1-acryloyl-4-fluoropyrrolidin-3-yl)-2-(((5-(tert-butyl)-6-chloro-1H-indazol-3-yl)amino)methyl)-1,4-dimethyl-1H-imidazole-5-carboxamide] | 13
C=CC(=O)N1C[C@@H](CC#N)[C@@H](NC(=O)c2c(C)nc(CNc3n[nH]c4cc(Cl)c(C(C)(C)C)cc34)n2C)C1 [Example 65, N-((3R,4R)-1-acryloyl-4-(cyanomethyl)pyrrolidin-3-yl)-2-(((5-(tert-butyl)-6-chloro-1H-indazol-3-yl)amino)methyl)-1,4-dimethyl-1H-imidazole-5-carboxamide] | 19
C=CC(=O)N1C[C@@H](CF)[C@@H](NC(=O)c2c(C)nc(CNc3n[nH]c4cc(Cl)c(C(C)(C)C)cc34)n2C)C1 [Example 66, N-((3R,4R)-1-acryloyl-4-(fluoromethyl)pyrrolidin-3-yl)-2-(((5-(tert-butyl)-6-chloro-1H-indazol-3-yl)amino)methyl)-1,4-dimethyl-1H-imidazole-5-carboxamide] | 20
C=CC(=O)N1C[C@@H](COC)[C@@H](NC(=O)c2c(C)nc(CNc3n[nH]c4cc(Cl)c(C(C)(C)C)cc34)n2C)C1 [Example 67, N-((3R,4R)-1-acryloyl-4-(methoxymethyl)pyrrolidin-3-yl)-2-(((5-(tert-butyl)-6-chloro-1H-indazol-3-yl)amino)methyl)-1,4-dimethyl-1H-imidazole-5-carboxamide] | 24
C=CC(=O)N1C[C@@H](CN(C)C)[C@@H](NC(=O)c2c(C)nc(CNc3n[nH]c4cc(Cl)c(C(C)(C)C)cc34)n2C)C1 [Example 68, N-((3R,4R)-1-acryloyl-4-((dimethylamino)methyl)pyrrolidin-3-yl)-2-(((5-(tert-butyl)-6-chloro-1H-indazol-3-yl)amino)methyl)-1,4-dimethyl-1H-imidazole-5-carboxamide] | 99
C=CC(=O)N1C[C@@H](CC)[C@@H](NC(=O)c2c(C)nc(CNc3n[nH]c4cc(Cl)c(C(C)(C)C)cc34)n2C)C1 [Example 69, N-((3R,4R)-1-acryloyl-4-ethylpyrrolidin-3-yl)-2-(((5-(tert-butyl)-6-chloro-1H-indazol-3-yl)amino)methyl)-1,4-dimethyl-1H-imidazole-5-carboxamide] | 6650
C=CC(=O)N1C[C@H](NC(=O)c2c(C(F)F)nc(CNc3n[nH]c4cc(Cl)c(C(C)(C)C)cc34)n2C)[C@@H](F)C1 [Example 70, N-((3S,4S)-1-acryloyl-4-fluoropyrrolidin-3-yl)-2-(((5-(tert-butyl)-6-chloro-1H-indazol-3-yl)amino)methyl)-4-(difluoromethyl)-1-methyl-1H-imidazole-5-carboxamide] | 79
C=CC(=O)N1C[C@@H](C)[C@@H](NC(=O)c2c(C(F)F)nc(CNc3n[nH]c4cc(Cl)c(C(C)(C)C)cc34)n2C)C1 [Example 71, N-((3R,4R)-1-acryloyl-4-methylpyrrolidin-3-yl)-2-(((5-(tert-butyl)-6-chloro-1H-indazol-3-yl)amino)methyl)-4-(difluoromethyl)-1-methyl-1H-imidazole-5-carboxamide] | 117
C=CC(=O)N1CC[C@@H](NC(=O)c2c(F)nc(CNc3n[nH]c4cc(Cl)c(C(C)(C)C)cc34)n2C)C1 [Example 72, (R)-N-(1-acryloylpyrrolidin-3-yl)-2-(((5-(tert-butyl)-6-chloro-1H-indazol-3-yl)amino)methyl)-4-fluoro-1-methyl-1H-imidazole-5-carboxamide] | 71
C=CC(=O)N1CC[C@@H](NC(=O)c2c(Cl)nc(CNc3n[nH]c4cc(Cl)c(C(C)(C)C)cc34)n2C)C1 [Example 73, (R)-N-(1-acryloylpyrrolidin-3-yl)-2-(((5-(tert-butyl)-6-chloro-1H-indazol-3-yl)amino)methyl)-4-chloro-1-methyl-1H-imidazole-5-carboxamide] | 52
C=CC(=O)N1C[C@@H](C)[C@@H](NC(=O)c2c(F)nc(CNc3n[nH]c4cc(Cl)c(C(C)(C)C)cc34)n2C)C1 [Example 74, N-((3R,4R)-1-acryloyl-4-methylpyrrolidin-3-yl)-2-(((5-(tert-butyl)-6-chloro-1H-indazol-3-yl)amino)methyl)-4-fluoro-1-methyl-1H-imidazole-5-carboxamide] | 36
C=CC(=O)N1C[C@H](NC(=O)c2c(F)nc(CNc3n[nH]c4cc(Cl)c(C(C)(C)C)cc34)n2C)[C@@H](F)C1 [Example 75, N-((3S,4S)-1-acryloyl-4-fluoropyrrolidin-3-yl)-2-(((5-(tert-butyl)-6-chloro-1H-indazol-3-yl)amino)methyl)-4-fluoro-1-methyl-1H-imidazole-5-carboxamide] | 16
C=CC(=O)N1C[C@H](NC(=O)c2c(Cl)nc(CNc3n[nH]c4cc(Cl)c(C(C)(C)C)cc34)n2C)[C@@H](F)C1 [Example 76, N-((3S,4S)-1-acryloyl-4-fluoropyrrolidin-3-yl)-2-(((5-(tert-butyl)-6-chloro-1H-indazol-3-yl)amino)methyl)-4-chloro-1-methyl-1H-imidazole-5-carboxamide] | 13
C=CC(=O)N1CC[C@@H](N(C)C(=O)c2cnc(CNc3n[nH]c4cc(Cl)c(C(C)(C)C)cc34)n2C)C1 [Example 77, (R)-N-(1-acryloylpyrrolidin-3-yl)-2-(((5-(tert-butyl)-6-chloro-1H-indazol-3-yl)amino)methyl)-N,1-dimethyl-1H-imidazole-5-carboxamide] | 142
C=CC(=O)N1C[C@@H](C)[C@@H](NC(=O)c2c(Cl)nc(CNc3n[nH]c4cc(Cl)c(C(C)(C)C)cc34)n2C)C1 [Example 78, N-((3R,4R)-1-acryloyl-4-methylpyrrolidin-3-yl)-2-(((5-(tert-butyl)-6-chloro-1H-indazol-3-yl)amino)methyl)-4-chloro-1-methyl-1H-imidazole-5-carboxamide] | 20
Cc1nc(CNc2n[nH]c3cc(Cl)c(C(C)(C)C)cc23)n(C(C)C)c1C(=O)NC1CN(C(=O)/C=C/CN2CCCCC2)C1 [Example 79, (E)-2-(((5-(tert-butyl)-6-chloro-1H-indazol-3-yl)amino)methyl)-1-isopropyl-4-methyl-N-(1-(4-(piperidin-1-yl)but-2-enoyl)azetidin-3-yl)-1H-imidazole-5-carboxamide] | 122
Cc1nc(CNc2n[nH]c3cc(Cl)c(C(C)(C)C)cc23)n(C)c1C(=O)NC1CN(C(=O)/C=C/CN(C)C)C1 [Example 80, (E)-2-(((5-(tert-butyl)-6-chloro-1H-indazol-3-yl)amino)methyl)-N-(1-(4-(dimethylamino)but-2-enoyl)azetidin-3-yl)-1,4-dimethyl-1H-imidazole-5-carboxamide] | 63
C/C=C/C(=O)N1CC(NC(=O)c2c(C)nc(CNc3n[nH]c4cc(Cl)c(C(C)(C)C)cc34)n2C(C)C)C1 [Example 81, (E)-N-(1-(but-2-enoyl)azetidin-3-yl)-2-(((5-(tert-butyl)-6-chloro-1H-indazol-3-yl)amino)methyl)-1-isopropyl-4-methyl-1H-imidazole-5-carboxamide] | 2630
CC#CC(=O)N1CC(NC(=O)c2c(C)nc(CNc3n[nH]c4cc(Cl)c(C(C)(C)C)cc34)n2C(C)C)C1 [Example 82, N-(1-(buty-2-noyl)azetidin-3-yl)-2-(((5-(tert-butyl)-6-chloro-1H-indazol-3-yl)amino)methyl)-1-isopropyl-4-methyl-1H-imidazole-5-carboxamide] | 209
Cc1nc(CNc2n[nH]c3cc(Cl)c(C(C)(C)C)cc23)n(C(C)C)c1C(=O)NC1CN(C(=O)/C=C\Cl)C1 [Example 83, (Z)-2-(((5-(tert-butyl)-6-chloro-1H-indazol-3-yl)amino)methyl)-N-(1-(3-chloroacryloyl)azetidin-3-yl)-1-isopropyl-4-methyl-1H-imidazole-5-carboxamide] | 2350
CC(C)n1c(CNc2n[nH]c3cc(Cl)c(C(C)(C)C)cc23)nc(C(F)F)c1C(=O)NC1CN(C(=O)/C=C/CN(C)C)C1 [Example 84, (E)-2-(((5-(tert-butyl)-6-chloro-1H-indazol-3-yl)amino)methyl)-4-(difluoromethyl)-N-(1-(4-(dimethylamino)but-2-enoyl)azetidin-3-yl)-1-isopropyl-1H-imidazole-5-carboxamide] | 63
